# pIC50: −log10 of the molar value. Active and inactive are the calls of the source.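 The calls were made as follows: active = cell killing, with a fitted active concentration at or below twice the top valid dose tested; inconclusive = flat partial cell loss, or a poor curve fit; inactive = effect in the rising direction, plus the rest.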
# System: not listed separately
# Assay: cytotoxicity in A549 cells, dose response, cytotoxicity control, cell-based, CellTiter-Glo luminescence, dry powder (AID 743483)
# Conditions: A549 viability, CellTiter-Glo ATP luminescence, 72 h; at 12 µM (top of the series)
row,SMILES,"activity change, negative = cytotoxicity"
1,C[C@H](CO)N1C[C@H](C)[C@H](CN(C)C(=O)Nc2ccccc2)OCCCC[C@H](C)Oc2ccc(NC(=O)CCC(F)(F)F)cc2C1=O,12.7% (inactive)
2,C[C@H](CO)N1C[C@H](C)[C@H](CN(C)C(=O)Nc2ccc(F)cc2)OCCCC[C@H](C)Oc2ccc(NC(=O)C3CCCC3)cc2C1=O,12.9% (inactive)

# Same assay, conditions: A549 viability, CellTiter-Glo ATP luminescence, 72 h; at 26 µM (top of the series)
row,SMILES,"activity change, negative = cytotoxicity"
1,C[C@H](CO)N1C[C@H](C)[C@H](CN(C)C(=O)Nc2cccc3ccccc23)OCCCC[C@H](C)Oc2ccc(NC(=O)C3CCCCC3)cc2C1=O,-19% (inactive)
2,C[C@H](CO)N1C[C@H](C)[C@@H](CN(C)C(=O)Nc2cccc3ccccc23)OCCCC[C@H](C)Oc2ccc(NC(=O)C3CCCCC3)cc2C1=O,-15.8% (inactive)
3,C[C@H](CO)N1C[C@H](C)[C@H](CN(C)C(=O)Nc2ccccc2F)OCCCC[C@H](C)Oc2ccc(NC(=O)C3CCCCC3)cc2C1=O,-18.7% (inactive)
4,C[C@H](CO)N1C[C@H](C)[C@H](CN(C)C(=O)Nc2cccc(F)c2)OCCCC[C@H](C)Oc2ccc(NC(=O)C3CCCCC3)cc2C1=O,-12.5% (inactive)
5,CC(=O)Nc1ccc2c(c1)C(=O)N([C@H](C)CO)C[C@H](C)[C@H](CN(C)C(=O)Nc1ccc(F)cc1)OCCCC[C@H](C)O2,-6.53% (inactive)
6,C[C@H](CO)N1C[C@H](C)[C@H](CN(C)C(=O)Nc2ccc(F)cc2)OCCCC[C@H](C)Oc2ccc(NC(=O)Nc3ccccc3)cc2C1=O,-4.11% (inactive)
7,C[C@H](CO)N1C[C@H](C)[C@H](CN(C)C(=O)Nc2ccccc2)OCCCC[C@H](C)Oc2ccc(NC(=O)Nc3ccccc3)cc2C1=O,3.79% (inactive)
8,C[C@H](CO)N1C[C@H](C)[C@H](CN(C)C(=O)Nc2ccc3ccccc3c2)OCCCC[C@H](C)Oc2ccc(NC(=O)C3CCCCC3)cc2C1=O,2.71% (inactive)
9,Cc1ccc(NC(=O)N(C)C[C@@H]2OCCCC[C@H](C)Oc3ccc(NC(=O)C4CCCCC4)cc3C(=O)N([C@H](C)CO)C[C@@H]2C)cc1,-2.73% (inactive)
10,C[C@H](CO)N1C[C@H](C)[C@H](CN(C)C(=O)Nc2ccc(F)cc2)OCCCC[C@H](C)Oc2ccc(NC(=O)C3CCC3)cc2C1=O,-1.54% (inactive)
11,C[C@H](CO)N1C[C@H](C)[C@H](CN(C)C(=O)Nc2ccc(C(F)(F)F)cc2)OCCCC[C@H](C)Oc2ccc(NC(=O)NC3CCCCC3)cc2C1=O,-9.21% (inactive)
12,C[C@H](CO)N1C[C@H](C)[C@H](CN(C)C(=O)Nc2ccc(F)cc2)OCCCC[C@H](C)Oc2ccc(NC(=O)C3CCCCCC3)cc2C1=O,-13.4% (inactive)
13,C[C@H](CO)N1C[C@H](C)[C@H](CN(C)C(=O)Nc2ccc3c(c2)OCO3)OCCCC[C@H](C)Oc2ccc(NC(=O)C3CCCCC3)cc2C1=O,-3.37% (inactive)
14,C[C@H](CO)N1C[C@H](C)[C@H](CN(C)C(=O)Nc2ccc3c(c2)OCO3)OCCCC[C@H](C)Oc2ccc(NC(=O)NC3CCCCC3)cc2C1=O,-4.36% (inactive)
15,C[C@H]1CCCCO[C@@H](CN(C)C(=O)Nc2ccc(F)cc2)[C@@H](C)CN([C@@H](C)CO)C(=O)c2cc(NC(=O)C3CCCCC3)ccc2O1,-21.4% (inactive)
16,C[C@H]1CCCCO[C@@H](CN(C)C(=O)Nc2ccccc2)[C@@H](C)CN([C@@H](C)CO)C(=O)c2cc(NC(=O)NC3CCCCC3)ccc2O1,-3.65% (inactive)
17,C[C@@H]1CCCCO[C@H](CN(C)C(=O)Nc2cccc3ccccc23)[C@H](C)CN([C@H](C)CO)C(=O)c2cc(NC(=O)C3CCCCC3)ccc2O1,-21.8% (inactive)
18,C[C@@H]1CCCCO[C@@H](CN(C)C(=O)Nc2cccc3ccccc23)[C@H](C)CN([C@H](C)CO)C(=O)c2cc(NC(=O)C3CCCCC3)ccc2O1,-11.3% (inactive)
19,COc1ccc(NC(=O)N(C)C[C@@H]2OCCCC[C@H](C)Oc3ccc(NC(=O)NC4CCCCC4)cc3C(=O)N([C@H](C)CO)C[C@@H]2C)cc1,3.04% (inactive)

row,SMILES,"activity change, negative = cytotoxicity"
1,C[C@H](CO)N1C[C@H](C)[C@H](CN(C)C(=O)Nc2ccccc2)OCCCC[C@H](C)Oc2ccc(NC(=O)C3CCCCC3)cc2C1=O,-8.81% (inactive)
2,C[C@H](CO)N1C[C@H](C)[C@H](CN(C)C(=O)Nc2ccc(F)cc2)OCCCC[C@H](C)Oc2ccc(NC(=O)C3CCCCC3)cc2C1=O,-8.92% (inactive)
3,CC(C)(C)c1ccc(-c2nc(-c3ccncc3)no2)cc1,-8.72% (inactive)
4,C[C@@H]1CCCCO[C@H](CN(C)C(=O)Nc2cccc3ccccc23)[C@@H](C)CN([C@@H](C)CO)C(=O)c2cc(NC(=O)C3CCCCC3)ccc2O1,-19.7% (inactive)
5,C[C@H]1CCCCO[C@@H](CN(C)C(=O)Nc2ccc3c(c2)OCO3)[C@@H](C)CN([C@@H](C)CO)C(=O)c2cc(NC(=O)NC3CCCCC3)ccc2O1,-15% (inactive)
6,C[C@H](CO)N1C[C@H](C)[C@H](CN(C)C(=O)Nc2ccccc2)OCCCC[C@H](C)Oc2ccc(NC(=O)NC3CCCCC3)cc2C1=O,-4.06% (inactive)
7,C[C@H](CO)N1C[C@H](C)[C@H](CN(C)C(=O)Nc2cccc3ccccc23)OCCCC[C@H](C)Oc2ccc(NC(=O)c3ccccc3)cc2C1=O,-18.3% (inactive)
8,C[C@@H]1CCCCO[C@@H](CN(C)C(=O)Nc2cccc3ccccc23)[C@@H](C)CN([C@H](C)CO)C(=O)c2cc(NC(=O)C3CCCCC3)ccc2O1,-24.4% (inactive)
9,C[C@H](CO)N1C[C@H](C)[C@H](CN(C)C(=O)Nc2cccc3ccccc23)OCCCC[C@H](C)Oc2ccc(NC(=O)NC3CCCCC3)cc2C1=O,-18.8% (inactive)
10,C[C@H](CO)N1C[C@H](C)[C@H](CN(C)C(=O)Nc2ccc(F)cc2)OCCCC[C@H](C)Oc2ccc(NC(=O)C3CCOCC3)cc2C1=O,4.42% (inactive)
11,C[C@H](CO)N1C[C@H](C)[C@H](CN(C)C(=O)Nc2ccc(F)cc2)OCCCC[C@H](C)Oc2ccc(NC(=O)Nc3ccc(F)cc3)cc2C1=O,-13.3% (inactive)
12,C[C@H](CO)N1C[C@H](C)[C@H](CN(C)C(=O)Nc2ccccc2)OCCCC[C@H](C)Oc2ccc(NC(=O)Nc3ccc4c(c3)OCO4)cc2C1=O,-21.2% (inactive)
13,COc1ccc(NC(=O)N(C)C[C@@H]2OCCCC[C@H](C)Oc3ccc(NC(=O)C4CCCCC4)cc3C(=O)N([C@H](C)CO)C[C@@H]2C)cc1,-14.8% (inactive)
14,C[C@H](CO)N1C[C@H](C)[C@H](CN(C)C(=O)Nc2cccc3ccccc23)OCCCC[C@H](C)Oc2ccc(NC(=O)CCC(F)(F)F)cc2C1=O,-6.54% (inactive)
15,C[C@@H]1CCCCO[C@H](CN(C)C(=O)Nc2cccc3ccccc23)[C@H](C)CN([C@@H](C)CO)C(=O)c2cc(NC(=O)C3CCCCC3)ccc2O1,-22.6% (inactive)
16,C[C@@H]1CCCCO[C@@H](CN(C)C(=O)Nc2cccc3ccccc23)[C@H](C)CN([C@@H](C)CO)C(=O)c2cc(NC(=O)C3CCCCC3)ccc2O1,-18.7% (inactive)
17,C[C@H](CO)N1C[C@H](C)[C@H](CN(C)C(=O)Nc2ccc(F)cc2)OCCCC[C@H](C)Oc2ccc(NC(=O)C3CC3)cc2C1=O,2.37% (inactive)
18,C[C@@H]1CN([C@@H](C)CO)C(=O)c2cc(NC(=O)C3CCCCC3)ccc2O[C@@H](C)CCCCO[C@@H]1CN(C)C(=O)Nc1cccc2ccccc12,-22.9% (inactive)
19,C[C@H](CO)N1C[C@H](C)[C@H](CN(C)C(=O)Nc2ccc(F)cc2)OCCCC[C@H](C)Oc2ccc(NC(=O)NC3CCCCC3)cc2C1=O,-3.88% (inactive)

# System: A549 viability, CellTiter-Glo ATP luminescence, 72 h
# Assay: as above
# Conditions: not given
row,SMILES,pIC50
1,COc1ccc(S(=O)(=O)N(C)C[C@@H]2OCCCC[C@H](C)Oc3ccc(NS(=O)(=O)c4ccc(Cl)cc4)cc3C(=O)N([C@@H](C)CO)C[C@@H]2C)cc1,4.66
2,C[C@@H]1CN([C@@H](C)CO)C(=O)c2cc(NC(=O)C3CCCCC3)ccc2O[C@@H](C)CCCCO[C@H]1CN(C)C(=O)Nc1cccc2ccccc12,5.19
3,C[C@H]1CCCCO[C@@H](CN(C)S(=O)(=O)c2ccc(Cl)cc2)[C@@H](C)CN([C@@H](C)CO)C(=O)c2cc(NC(=O)NC3CCCCC3)ccc2O1,4.72
4,C[C@@H]1CN([C@H](C)CO)C(=O)c2cc(NC(=O)C3CCCCC3)ccc2O[C@@H](C)CCCCO[C@H]1CN(C)C(=O)Nc1cccc2ccccc12,4.66

# Reference: PubChem BioAssay AID743483 (Broad Institute, 2014)
